Test results published in the supplement of paper PMC10307832.

How the values were obtained:
Experiment in all cases: relative viability (nuclei count vs DMSO), 5 days (fraction); higher = more cells survive
[1] = compound: CC1=CC=C(C=C1)C(=O)CN2C3=C(CCCC3)SC2=N [Pifithrin_alpha] + Cc1nc(NC(=O)N2CCC[C@H]2C(N)=O)sc1-c1ccnc(C(C)(C)C(F)(F)F)c1 [Alpelisib] (partner 2 µM)
Summary of the method: (§1)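 Nuclei were stained with Hoechst during a one-step fixation (final 0.05% Triton X-100, 1% formaldehyde, 1 ug/ml Hoechst) carried out 5 days after dosing, then counted on 4× images. The cells, lung cancer lines in 1536-well plates, had been dosed by pin tool the day after seeding with one drug alone or a fixed anchor-drug dose plus five library-drug doses (not always all listed) in √10 steps. Relative viability is the nuclei count in treated wells divided by that in vehicle wells, and each value is the median of duplicate plates.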

[2] = compound: CNC(=O)c1ccccc1Sc1ccc2c(/C=C/c3ccccn3)n[nH]c2c1 [Axitinib] + CC(=O)Nc1cccc(-n2c(=O)n(C3CC3)c(=O)c3c(Nc4ccc(I)cc4F)n(C)c(=O)c(C)c32)c1 [Trametinib] (partner 0.02 µM)
Summary of the method: as §1

[3] = compound: CNC(=O)c1ccccc1Sc1ccc2c(/C=C/c3ccccn3)n[nH]c2c1 [Axitinib] + O=C(CCCCCCC(=O)Nc1ccccc1)NO [Vorinostat] (partner 1 µM)
Summary of the method: as §1

[4] = compound: Nc1nc(Nc2ccc3c(c2)CC[C@@H](N2CCCC2)CC3)nn1-c1cc2c(nn1)-c1ccccc1CCC2 [Bemcentinib] + Cc1nc(Nc2ncc(C(=O)Nc3c(C)cccc3Cl)s2)cc(N2CCN(CCO)CC2)n1 [Dasatinib] (partner 0.075 µM)
Summary of the method: as §1

Cell Line	relative viability ([1]; first compound 1 µM)	relative viability ([1]; first compound 3.162 µM)	relative viability ([1]; first compound 10 µM)	relative viability ([1]; first compound 31.62 µM)	relative viability ([1]; first compound 100 µM)	relative viability ([2]; first compound 0.005 µM)	relative viability ([2]; first compound 0.01581 µM)	relative viability ([2]; first compound 0.05 µM)	relative viability ([2]; first compound 0.1581 µM)	relative viability ([2]; first compound 0.5 µM)	relative viability ([3]; first compound 0.005 µM)	relative viability ([3]; first compound 0.01581 µM)	relative viability ([3]; first compound 0.05 µM)	relative viability ([3]; first compound 0.1581 µM)	relative viability ([3]; first compound 0.5 µM)	relative viability ([4]; first compound 0.04 µM)	relative viability ([4]; first compound 0.1265 µM)	relative viability ([4]; first compound 0.4 µM)	relative viability ([4]; first compound 1.265 µM)	relative viability ([4]; first compound 4 µM)
NCI-H1755	0.99	0.93	0.942	0.75	1.02	0.806	0.764	0.786	0.822	0.789	0.77	0.8	0.797	0.714	0.572	0.379	0.511	0.397	0.438	0.41
NCI-H1666	0.771	0.577	0.527	0.479	0.352	0.904	0.868	0.863	0.847	0.873	1.07	1.14	1.02	1.09	1.11	0.755	0.781	0.806	0.773	0.781
PC-3 [JPC-3]	0.953	0.945	0.975	0.884	0.882	0.756	–	0.626	0.762	0.741	0.787	–	0.94	0.758	0.857	1.04	0.589	1.19	1.01	1.08
NCI-H358	0.895	0.958	0.87	0.566	0.687	0.137	0.13	0.144	0.125	0.14	0.698	0.675	0.689	0.573	0.726	0.153	0.146	0.148	0.163	0.171
NCI-H1975	0.58	0.445	0.385	0.346	0.299	0.44	0.361	0.325	0.348	0.328	0.704	0.729	0.715	0.644	0.733	0.344	0.424	0.432	0.386	0.354
LC-2-ad	0.898	0.799	0.791	0.56	0.682	0.953	0.864	0.885	0.873	0.871	0.67	0.722	0.736	0.713	0.685	0.308	0.597	0.659	0.669	0.557
NCI-H1993	–	0.692	0.757	0.568	0.607	0.433	0.373	0.535	0.503	0.506	0.826	0.835	0.734	0.722	0.876	0.571	0.563	0.625	0.552	0.577
CAL-12T	–	1.04	0.971	0.736	1.13	0.401	0.311	0.336	0.288	0.338	0.869	0.72	0.686	0.737	1.12	0.366	0.356	0.398	0.45	0.555
H3255	0.587	0.739	0.692	0.403	0.593	0.573	–	0.551	0.486	0.558	0.806	–	0.927	0.844	0.796	0.308	0.396	0.315	0.332	0.346
NCI-H2228	0.697	0.613	0.566	0.531	0.465	0.683	0.515	0.561	0.478	0.509	0.818	0.618	0.605	0.506	0.885	0.14	0.566	0.532	0.526	0.538
NCI-H727	0.55	0.533	0.512	0.415	0.492	0.375	0.369	0.402	0.377	0.414	1.16	1.33	1.16	1.35	1.21	0.394	0.4	0.319	0.337	0.441
NCI-H1355	0.732	0.587	0.559	0.489	0.591	0.409	0.423	0.397	0.417	0.493	0.661	0.575	0.69	0.604	0.542	0.723	0.778	0.829	0.778	0.841
LXF-289	1.09	1.01	1.08	0.921	1.03	0.703	0.644	0.683	0.684	0.701	0.777	0.74	0.791	0.716	0.732	0.206	0.178	0.212	0.241	0.187
NCI-H3122	0.859	0.864	0.912	0.812	0.917	0.217	0.212	0.255	0.217	0.267	0.914	1.06	1.05	0.888	1.02	–	0.751	0.768	0.888	0.933
NCI-H2023	0.589	0.396	0.454	0.289	0.367	0.634	0.483	0.489	0.439	0.57	0.545	0.604	0.607	0.557	0.796	0.56	0.727	0.606	0.677	0.64
NCI-H838	0.909	0.834	0.812	0.694	0.733	0.565	0.486	0.584	0.52	0.572	0.814	0.725	0.792	0.707	0.752	0.221	0.305	0.309	0.254	0.294
